The source of these data is patent publication US8772274B1, “Anti-cancer compositions and methods” (The Penn State Research Foundation, priority 2008, dated 2014).

Where a name gives a salt, the structure may show the parent alone. Read-outs that look alike come from different tables or passages of the source. Some results are limits rather than exact numbers.

Data set [1] has as its system HCT-116 colorectal adenocarcinoma cells. Kind of data set: MTS cell viability assay, HCT-116. The class given is cell-based. On the technique in general: Tetrazolium dyes change colour on reduction, which living cells bring about.
Data set [2] concerns PC-3 prostate adenocarcinoma cells. The data set can be described thus: MTS cell viability assay, PC-3. The settings on record: PC-3 prostate adenocarcinoma; 24 h; MTS; read-out: Inhibition Cancer Cells IC50, PC-3 (Table III). It is filed as cell-based, human.
Experimental: (§1) Growth inhibitory effects on cultured cells from human vertical growth phase (VGP) melanoma cell line WM115, Lung adenocarcinoma (A549), fibrosarcoma (HT-1080), prostate adenocarcinoma (PC-3), ovarian carcinoma (OVCAR-3), and breast adenocarcinoma (MDA-MB-231) are plated in 96 well plates at a density of 5×10^3 cells/well in 100 μl media. […] Dose response curves for each compound are generated and the IC50 values (μM) determined using GraphPad Prism software. Each experiment is replicated at least 3 times and the average IC50 (μM) values with standard error represented.
Data set [3] relates to A549 lung adenocarcinoma cells. The data set can be described thus: MTS cell viability assay, A549. Conditions: A549 lung carcinoma; 24 h; MTS; read-out: Inhibition Cancer Cells IC50, A549 (Table III). The class given is cell-based, human.
Experimental: as §1
Data set [4] in a line: Toxicity of topical application in vivo. The procedure: Blood collected from the control and experimental animals, at the end of treatment (day 29), are analyzed for SGOT, SGPT (representing liver and cardiac toxicity) and alkaline phosphatase (for kidney and cardiac toxicity). Additionally, concentrations of metabolites (glucose, creatinine, urea nitrogen and total protein) in serum are also determined.

The subject of data set [5] is HT-29 colorectal adenocarcinoma cells. The data set can be described thus: MTS cell viability assay, HT-29. It is filed as cell-based.
Data set [6] relates to 1205Lu melanoma cell line. Kind of data set: MTS cell viability assay, 1205Lu. It is filed as cell-based. The settings on record: read-out: IC50, 1205Lu (Table I).
Experimental: (§2) Cellular viability compared to control treated cells is measured using the MTS assay (Promega, Madison, Wis.).
In data set [7] the test system is Caco-2 colon adenocarcinoma cells. The data set can be described thus: MTS cell viability assay, Caco-2. The settings on record: MTS.
Experimental: In vitro inhibitory efficacy is measured using 3-(4,5-dimethylthiazol-2-yl)-5-(3-carboxymethoxyphenyl)-2-(4-sulfophenyl)-2H-tetrazolium (MTS) assay (Promega, Madison, Wis.). […] Cells are treated with either vehicle control, PBS, PBIT (40-120 μM) or PBISe (2.4-10 μM) for 72 h. The percentages of viable cells compared to control PBS treated cells are determined using MTS assay and IC50 values calculated using GraphPad Prism version 4.01 (GraphPad software, San Diego, Calif.). An IC50 value for each compound is determined by at least three independent experiments and represented with a standard error.
(§3) The IC50 value is evaluated by treating with increasing concentrations of PBIT, PEIT, PEISe (10-100 μM) or PBISe (1.6-50 μM) for 24-72 hours and the number of viable cell are quantified using MTS (Promega, Wis.).
The test system of another data set is WM115 melanoma cell line. Kind of data set: MTS cell viability assay, WM115.
The test system of data set [8] is UACC 903 melanoma cell line. Kind of data set: MTS cell viability assay, UACC 903. It is filed as cell-based. The settings on record: read-out: IC50, UACC 903 (Table I).
Experimental: as §2
In data set [9] the test system is MDA-MB-231 breast adenocarcinoma cells. The data set can be described thus: MTS cell viability assay, MDA-MB-231. The settings on record: MDA-MB-231 breast adenocarcinoma; 24 h; MTS; read-out: Inhibition Cancer Cells IC50, MDA-MB-231 (Table III). It is filed as cell-based, human.
Experimental: as §1
The test system of data set [10] is iNOS (total nitrate+nitrite in Caco-2 cells). Kind of data set: Nitrite estimation (nitrate/nitrite colorimetric assay). The class given is cell-based. Conditions: 80 μM, 72 hours. On the procedure: Nitrite content in cell culture media is determined using a nitrate/nitrite colorimetric assay kit (Cayman Chemical Company, Ann Arbor, Mich.) essentially as described in Salvucci, O. et al., Cancer Res 2001; 61:318-26. Caco-2 cells (1×10^6) are plated in 60 mm culture dishes in advanced DMEM containing 10% heat treated FBS for 12 hours, growing cells conditioned with phenol-red free DMEM containing 0.5% FBS for an additional 12 hours. Cells are then treated with increasing concentrations of PBIT (40 and 80 μM) or PBISe (2 and 4 μM) dissolved in phenol-red free DMEM (2 ml) containing 0.5% FBS for 72 hours. Culture supernatants are collected and total nitrite (nitrate+nitrite) measured by incubating 80 μL supernatant with enzyme cofactor mixture (10 μL) and nitrate reductase (10 μL) for 2 hours. Total nitrite is measured by the addition of Griess reagent-I and II (50 μL each). A nitrate standard curve (5-35 μM) is simultaneously prepared. Total nitrite present in media alone is subtracted from all experimental values and represented as micromolar nitrite produced following each treatment.

The subject of data set [11] is A549, Caco-2, HT-1080, PC-3, OVCAR-3, MDA-MB-231, WM115. Kind of data set: MTS viability, all cancer cell lines tested (summary). The class given is cell-based, human. Conditions: Table III; read-out: concentration decreasing cell viability by 50% (IC50), cancer cell lines of Table III.
Experimental: as §1
The test system of data set [12] is colon adenocarcinoma cells (Caco-2, HT 29, HCT 116, SW 480). The data set can be described thus: MTS viability, four colon cancer cell lines (summary). The class given is cell-based. Conditions: Caco-2, HT 29, HCT 116, SW 480; 24-72 hours; read-out: IC50 range, four colon cancer cell lines.
Experimental: as §3
For data set [13], the system named is PI3 kinase/Akt3 and MAP kinase signaling in UACC 903 cells. Kind of data set: Western blot analysis of melanoma cell lysates. It is filed as cell-based. Conditions: melanoma cells. On the procedure: Melanoma cell line UACC 903 cells (1×10^6) are treated with increasing concentrations (7-21 μM) of PBIT and PBISe for 24 hours and cell lysates examined by Western blot analysis Cell lysates are harvested by addition of lysis buffer containing 50 mM HEPES (pH 7.5), 150 mM NaCl, 10 mM EDTA, 10% glycerol, 1% Triton X-100, 1 mM sodium orthovanadate, 0.1 mM sodium molybdate, 1 mM phenylmethylsulfonyl fluoride, 20 μg/ml aprotinin, and 5 μg/ml leupeptin. Whole cell lysates are centrifuged (≧10,000×g) for 10 minutes at 4° C. to remove cell debris. Protein concentrations are quantitated using the BCA assay (Pierce, Rockford, Ill.), and 30 μg of lysate loaded per lane onto NuPAGE Gels (Life Technologies, Carlsbad, Calif.). Following electrophoresis, samples are transferred to polyvinylidene difluoride membrane (Pall Corporation, Pensacola, Fla.). Blots are probed with antibodies to PRAS40 and phosphorylated PRAS40 (Thr246) (Invitrogen, Carlsbad, Calif.); antibodies to iNOS, cyclin D1, p27, p21, Erk2, α-enolase and secondary antibodies conjugated with horseradish peroxidase from Santa Cruz Biotechnology (Santa Cruz, Calif.); and antibodies to Akt3, phosphorylated-Akt (Ser473), phosphorylated-Erk 1/2 (Thr202/Tyr204), caspase-3 and cleaved PARP from Cell Signaling Technology (Danvers, Mass.). Immunoblots are developed using ECL (Pierce, Rockford, Ill.).
On the technique in general: Immunoblotting shows a protein as a band on a membrane.

The subject of data set [14] is HT-1080 fibrosarcoma cells. Kind of data set: MTS cell viability assay, HT-1080. Conditions: HT-1080 fibrosarcoma; 24 h; MTS; read-out: Inhibition Cancer Cells IC50, HT-1080 (Table III). The class given is cell-based, human.
Experimental: as §1
The subject of data set [15] is normal human fibroblast cells (FF2441). Kind of data set: MTS cell viability assay, normal fibroblasts. It is filed as cell-based. The settings on record: FF2441; 24-72 hours; MTS; read-out: Inhibition of growth IC50, Fibroblast cells (FF2441) (Table II).
Experimental: (§4) 5×10^3 cells per well in 100 μl DMEM-10% FBS are grown in a 96-well plate for 36 or 72 hours, respectively for melanoma (UACC 903, 1205 Lu and WM115) and human fibroblast (FF2441) cell lines and treated with either PBS vehicle or increasing concentrations (3.5-21 μM) of PBIT, PBISe, PEIT or PEISe for 24 hours. Cellular viability compared to control treated cells is measured using the MTS assay (Promega, Madison, Wis.). IC50 (μM) values for each compound in respective cell lines is determined from three independent experiments using GraphPad Prism version 4.01 (GraphPad, San Diego, Calif.), bars, SEM.
Viability of colon adenocarcinoma cells (Caco-2, HT 29, HCT 116, SW 480) and normal fibroblast cells (FF2441) treated with PBIT (1), PBISe (2), PEIT (3) or PEISe (4) is compared. The IC50 value is evaluated by treating with increasing concentrations of PBIT, PEIT, PEISe (10-100 μM) or PBISe (1.6-50 μM) for 24-72 hours and the number of viable cell are quantified using MTS (Promega, Wis.).
Data set [16] deals with OVCAR-3 ovarian carcinoma cells. The data set can be described thus: MTS cell viability assay, OVCAR-3. The settings on record: OVCAR-3 ovarian carcinoma; 24 h; MTS; read-out: Inhibition Cancer Cells IC50, OVCAR-3 (Table III). It is filed as cell-based, human.
Experimental: as §1
The test system of data set [17] is SW-480 colorectal adenocarcinoma cells. The data set can be described thus: MTS cell viability assay, SW-480. It is filed as cell-based. The settings on record: Homo sapiens, SW480, read-out: Inhibition of growth IC50, last Colorectal adenocarcinoma row (Table II).
Where [18] appears, read: read-out: Inhibition of growth IC50, Caco-2 (Table II), Caco-2, 24-72 hours.

Experimental for WM115 melanoma cell line: as §4
Growth inhibitory effects on cultured cells from human vertical growth phase (VGP) melanoma cell line WM115, Lung adenocarcinoma (A549), fibrosarcoma (HT-1080), prostate adenocarcinoma (PC-3), ovarian carcinoma (OVCAR-3), and breast adenocarcinoma (MDA-MB-231) are plated in 96 well plates at a density of 5×10^3 cells/well in 100 μl media. The cells are treated 36 hours later with PBISe (0.19-100 μM), PBIT (10-100 μM), PEIT 10-100 μM), or PEISe (10-100 μM) for 24 h and cell viability measured using MTS assay. Dose response curves for each compound are generated and the IC50 values (μM) determined using GraphPad Prism software. Each experiment is replicated at least 3 times and the average IC50 (μM) values with standard error represented.

By melting point is commonly meant the temperature, or range, at which the solid turns liquid. `N=C(N)[Se]CCc1ccccc1` (as salt: hydrobromid) [PEISe, s-2-phenylethylisoselenourea hydrobromide] yielded a melting point of 140 to 142 °C.
For the compound `Br.Br.N=C(N)SCCc1ccc(CCSC(=N)N)cc1` [PBIT, s,s′-1,4-phenylene-bis(1,2-ethanediyl)bis-isothiourea dihydrobromide, reference compound], the IC50 in [1] (HCT-116, 24-72 hours, MTS, read-out: Inhibition of growth IC50, HCT-116 (Table II)) is greater than 100 µM; in data set [2] it was greater than 100 µM; in [3], greater than 100 µM; in data set [5] (HT-29, 24-72 hours, MTS, read-out: Inhibition of growth IC50, HT-29 (Table II)), greater than 100 µM; in [6] (1205Lu melanoma, 24 hours treatment, MTS), greater than 100 µM; in data set [7] (read-out: Inhibition Cancer Cells IC50, Caco-2 (Table III), Caco-2 colorectal adenocarcinoma), 59.4 ± 3.8 µM. In addition, the IC50 in [7] (setting [18]) was 59.4 ± 3.83 µM; with WM115 melanoma cell line (read-out: IC50, WM115 (Table I), WM115 melanoma, 24 hours treatment, MTS), greater than 100 µM; in the data set on WM115 melanoma cell line (read-out: Inhibition Cancer Cells IC50, WM115 (Table III), WM115 melanoma, 24 h, MTS), greater than 100 µM; in data set [8] (UACC 903 melanoma, 24 hours treatment, MTS) it was greater than 100 µM; in data set [9], greater than 100 µM; in data set [11], greater than 100 µM. Moreover, the IC50 is 59 to 100 µM in data set [12], greater than 100 µM in [14], greater than 100 µM in data set [15] and greater than 100 µM in [16]. Moreover, the “serum enzyme and metabolite levels, topical application” value in data set [4] (day 29, SGOT, SGPT, alkaline phosphatase, glucose, creatinine, urea nitrogen, total protein) is on record as “no significant differences”. Besides, in data set [4] (topical every day, 29 days), the “body weight, topical application” value was “no detectable differences”. Moreover, the “total nitrate+nitrite levels compared to control PBS treated cells” value in data set [10] is recorded as “significantly reduces”. The iNOS expression entry in data set [13] (FIG. 4B) is “elevates”. Also, in data set [13] (FIG. 4C), the “cyclin D1 levels” value was “does not alter”.
On to `N=C(N)[Se]CCc1ccccc1` [PEISe, s-2-phenylethylisoselenourea hydrobromide], for which the IC50 in [1] (Homo sapiens, HCT-116, read-out: Inhibition of growth IC50, HCT-116 (Table II)) is greater than 100 µM; in data set [17] it was greater than 100 µM; in [5] (Homo sapiens, HT-29, read-out: Inhibition of growth IC50, HT-29 (Table II)), 21.9 ± 2.1 µM; in data set [6] (Homo sapiens, 1205Lu, 24 h), greater than 100 µM; in data set [7] (setting [18]), 16 ± 2 µM; in the data set with WM115 melanoma cell line (Homo sapiens, WM-115, 24 h, read-out: IC50, WM115 (Table I)) it was roughly 80 µM. Further, the IC50 in data set [8] (Homo sapiens, UACC-903, 24 h) is greater than 100 µM.
